The source of these data is patent publication US20160075689A1, “POLYMERASE, ENDONUCLEASE, AND HELICASE INHIBITORS AND METHODS OF USING THEREOF” (THE BOARD OF TRUSTEES OF THE UNIVERSITY OF ARKANSAS, priority 2013, published 2016).

Assay [1] concerns the target T1, hpol η (Homo sapiens, UniProt Q9Y253).
T1 construct: human DNA polymerases η (amino acids 1-437); 6x-histidine (N, cleaved yes); GST (N, cleaved yes); made in house; host or cells: Escherichia coli BL21 (DE3)
T1 sequence (Q9Y253 1-437): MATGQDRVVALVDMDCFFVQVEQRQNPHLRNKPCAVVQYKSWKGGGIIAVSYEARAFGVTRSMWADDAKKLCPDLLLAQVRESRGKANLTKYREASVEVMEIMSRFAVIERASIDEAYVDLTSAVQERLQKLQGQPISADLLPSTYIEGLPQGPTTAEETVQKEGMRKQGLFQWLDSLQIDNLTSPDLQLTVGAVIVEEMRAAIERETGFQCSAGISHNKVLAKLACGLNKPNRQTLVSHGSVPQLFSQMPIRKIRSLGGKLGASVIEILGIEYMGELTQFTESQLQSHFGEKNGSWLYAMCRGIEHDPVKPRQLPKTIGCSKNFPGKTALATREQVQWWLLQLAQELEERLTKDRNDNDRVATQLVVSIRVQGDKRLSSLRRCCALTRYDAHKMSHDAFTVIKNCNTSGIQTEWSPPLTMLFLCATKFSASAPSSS
Kind of assay: Fluorescence-based DNA polymerase strand-displacement assay. In kind it is biochemical. The source says: A library of 320 compounds targeted against nucleic acid interacting proteins was screened for inhibition of polymerase activity using an assay that monitors fluorescence from a 5-carboxytetramethylrhodamine (TAMRA) labeled oligonucleotide. In order to prepare the DNA for the experiment, a TAMRA-labeled reporter (or displaced) strand (SEQ ID NO. 4: 5′-TTT TTT TTG C-TAMRA-3′) and unlabeled primer strand (SEQ ID NO. 5: 5′-TCA CCC TCGTAC GAC TCT T-3′) were annealed to a Black Hole Quencher (BHQ)-labeled template strand (SEQ ID NO. 6: 5′BHQ2-GCAAAAAAAAAA GAG TCG TAC GAG GGT GA-3′) in a solution containing 10 mM Tris (pH 8.0), 50 mM NaCl, 2 mM MgCl2, and dH2O. The template (T), primer (P) and displaced strand (D) oligonucleotides were mixed in a 1:1.5:1.5 (T:P:D) molar ratio for annealing. After an incubation period of three minutes at 95° C., the DNA was allowed to slowly cool to room temperature overnight.
The fluorescence-based assay used to screen for polymerase inhibitors measures polymerase-catalyzed displacement of a TAMRA-labeled oligonucleotide (FIG. 1). For the initial screen, the experimental setup included 50 nM hpol η), 50 nM DNA, 6 μM compound, 100 μM dTTP and 1 mM MgCl2. The reactions were performed in 50 mM Tris (pH 8.0) buffer containing 40 mM NaCl, 2 mM dithiothreitol, and 0.01% (v/v) Tween-20. The concentration of dimethyl sulfoxide (DMSO) was 3.5% (v/v) for the initial screen. The enzyme, the compounds (including a DMSO control) and dTTP were combined with the reaction buffer in individual wells of each half-plate and allowed to incubate for 5-10 minutes. The DNA substrate was subsequently added to initiate the reaction and the plate was read immediately using a BioTek SynergyH4 plate reader (λex=525 nm, λem=598 run). The final reaction volume was 200 μL. Fluorescence was monitored for 90 minutes for most reactions. The initial portion of the velocity curve was analyzed by linear regression to calculate an observed rate of product formation. For each data set, eight DMSO control experiments were averaged to obtain our measure of 100% activity. Rates of product formation in the presence of each compound were then divided by the rate of the DMSO control to produce a relative measure of polymerase activity (0 to 1, with 1 being no inhibition).
(§1) In order to determine the IC50 value for each enzyme, the fluorescence-based polymerase assay was repeated with increasing concentrations of inhibitor. The conditions varied slightly for each enzyme. With the exception of hpol ι, all IC50 experiments were performed in 50 mM Tris HCl (pH 8.0) buffer containing 1 mM MgCl2, 0.1 mM dTTP, 40 mM NaCl, 2 mM DTT, 0.01% (v/v) Tween-20 and 10% (v/v) DMSO. For experiments with hpol ι, KCl was substituted for NaCl and 0.25 mM MnCl2 was substituted for MgCl2. The concentration of inhibitor was 0, 1, 5, 10, 20, 30, 50, 75 and 100 μM. The enzyme and DNA concentrations were as follows: 10 nM hpol η, 50 nM DNA; 3 nM hpol κ, 60 nM DNA; 50 nM hpol ι, 50 nM DNA; 10 nM Dpo4, 50 nM DNA; 100 nM Dpo1, 50 nM DNA; 50 nM hpol β, 50 nM DNA; 50 nM HIV-1 RT, 50 nM DNA. The percent activity was plotted as a function of the log of inhibitor concentration and fit to a four-parameter logistic model (equation 1) using Prism software (Graph Pad, San Diego, Calif.): […]

A further assay addresses T2, Dpo1 (Saccharolobus solfataricus, UniProt P26811).
T2 construct: made in house
Kind of assay: Fluorescence-based polymerase assay, IC50. It is filed as biochemical, Sulfolobus solfataricus. On the procedure: as §1

Assay [2] has as its target T1, hpol η. The experiment in a line: Gel-based polymerase extension assay. The settings on record: 6 μM, 13 μM and 60 μM. It is filed as biochemical. How it is done:
In order to provide a second measure of enzyme inhibition, polymerase extension assays were performed. Briefly, hpol η (2 nM) was pre-incubated with FAM-13/18-mer primer-template DNA ([…]) and either DMSO (final concentration=10%) or compound (6 μM, 13 μM and 60 μM; maintaining 10% DMSO for all experiments). Polymerase catalysis was initiated by the addition of dNTP (1 mM) and MgCl2 (5 mM). The reaction was allowed to proceed at 37° C. for varying times and then terminated by the addition of 5 μL aliquots of the reaction mix to 25 μL of the quench solution (20 mM EDTA, 95% (v/v) formamide and 0.1% (w/v) bromophenol blue). The samples were separated using a 16% polyacrylamide/7M urea gel and the products analyzed using a Typhoon imager and ImageQuant™ software (GE Healthcare Life Sciences).

The target in another assay is T3, hpol β (Homo sapiens, UniProt P06746).
T3 construct: purchased Enzymax (Lexington, Ky.)
Kind of assay: Fluorescence-based polymerase assay, IC50. In kind it is biochemical. How it is done: as §1

Assay [3] concerns the target T1, hpol η. The experiment in a line: Steady-state kinetic analysis of DNA polymerase activity. In kind it is biochemical. The settings on record: for kcat: varying dTTP. On the procedure: The steady-state kinetic parameters defining polymerase activity in the presence of inhibitor were determined using the fluorescence-based reporter assay. Hpol q activity was monitored in the presence of increasing concentrations of dTTP (1, 5, 10, 20, 30, 50, 75, and 100 μM). The measured relative fluorescence units (RFUs) were converted to a nanomolar quantity by calculating the total change in fluorescence observed between the start of the reaction and the time point at which the fluorescence change was maximal, and considering that change to be 100% of substrate converted to product. The percentage of substrate converted to product was multiplied by the concentration of dsDNA in the reaction mixture. Product formation was then plotted as a function of time, and by considering only the linear portion of each curve, velocities were calculated for each dTTP concentration. These were then plotted as a function of dTTP concentration, and fit to a hyperbola. After correcting for enzyme concentration, the steady-state kinetic parameters were obtained as described previously. The experiments were then repeated in the presence of inhibitor (10, 20 and 40 μM) to determine the effect of the small-molecule upon Michaelis-Menten kinetics.
Next, the mechanism of polymerase inhibition by ITBA-3 was investigated. The Michaelis-Menten kinetic parameters describing hpol η activity were measured in the presence of increasing concentrations of inhibitor. By varying the concentration of dTTP in the reaction mixture, the turnover number (kcat) and Michaelis constant (Km,dTTP) for hpol η were determined in the absence of inhibitor and at three concentrations of ITBA-3 (Table 3).

Each structure is given as a SMILES string. Bounds are passed on as bounds.

T2 sequence (P26811 whole entry): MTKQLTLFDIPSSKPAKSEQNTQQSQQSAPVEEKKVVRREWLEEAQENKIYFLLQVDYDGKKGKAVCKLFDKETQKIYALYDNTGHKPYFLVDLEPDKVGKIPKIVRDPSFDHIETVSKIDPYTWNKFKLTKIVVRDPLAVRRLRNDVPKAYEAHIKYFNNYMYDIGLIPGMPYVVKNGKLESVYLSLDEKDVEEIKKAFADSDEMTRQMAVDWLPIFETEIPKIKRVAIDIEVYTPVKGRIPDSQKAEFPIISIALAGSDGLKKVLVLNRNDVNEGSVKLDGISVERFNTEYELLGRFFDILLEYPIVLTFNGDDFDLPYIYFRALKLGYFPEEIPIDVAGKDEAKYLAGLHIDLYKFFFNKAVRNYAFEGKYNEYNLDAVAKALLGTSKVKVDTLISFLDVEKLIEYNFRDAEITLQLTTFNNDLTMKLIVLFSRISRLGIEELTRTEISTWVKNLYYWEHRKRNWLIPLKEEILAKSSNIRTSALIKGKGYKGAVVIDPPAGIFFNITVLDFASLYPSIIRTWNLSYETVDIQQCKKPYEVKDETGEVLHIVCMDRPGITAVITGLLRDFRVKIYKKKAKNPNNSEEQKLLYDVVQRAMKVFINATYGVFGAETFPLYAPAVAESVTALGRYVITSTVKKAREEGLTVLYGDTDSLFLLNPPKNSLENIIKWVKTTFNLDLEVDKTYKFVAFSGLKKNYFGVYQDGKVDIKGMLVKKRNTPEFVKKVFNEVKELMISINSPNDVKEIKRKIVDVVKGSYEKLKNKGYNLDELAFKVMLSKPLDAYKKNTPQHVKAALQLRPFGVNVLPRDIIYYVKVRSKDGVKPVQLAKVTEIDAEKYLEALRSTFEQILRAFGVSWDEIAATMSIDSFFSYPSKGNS

What is called IC50 is the concentration needed to halve the response being measured. For orientation: kcat means the maximal rate divided by the concentration of active sites. Turning to `O=C1NC(=S)NC(=O)C1=Cc1cn(C(=O)c2ccccc2Br)c2ccc(Cl)cc12` [ITBA-3, 5-((1-(2-bromobenzoyl)-5-chloro-1H-indol-3-yl)methylene)-2-thioxodihydropyimidine-4,6-(1H,5H)-dione], the IC50 on hpol η [1] (10 nM hpol η, 50 nM DNA, mean ± standard deviation of three data sets, read-out: IC50 for inhibition of hpol η) is 29.8 ± 2.7 µM; at Dpo1, ~80 µM; at hpol β it was < 50 µM. In addition, the “polymerase activity at increasing concentrations of inhibitor, fluorescence assay” value on hpol η [1] (6 μM, 13 μM and 20 μM) is “dose-dependent decrease in polymerase activity”. Besides, the “hpol η percent activity relative to the control assay” value at hpol η [1] (50 μM compound) is “dramatic improvement in activity”. Further, on hpol η [2], the “polymerase activity at increasing concentrations of inhibitor, gel-based analysis” value is “dose-dependent decrease in polymerase activity”. Besides, the kcat on hpol η [3] (10 μM inhibitor) was 0.04 ± 0.0017 s⁻¹; on hpol η [3] (20 μM inhibitor), 0.05 ± 0.005 s⁻¹; on hpol η [3] (40 μM inhibitor) it was 0.0517 ± 0.0033 s⁻¹. Moreover, at hpol η [3] (with respect to dTTP), the mode of inhibition entry is reported as “competitive”.
